{"source": "patent US9649324B2", "about": "“Use of tylvalosin as antiviral agent” (ECO ANIMAL HEALTH LIMITED, priority 2006, dated 2017)", "key": {"[1]": {"system": "Caco-2 cells", "assay": "Intracellular accumulation and trans-epithelial transport in polarised Caco-2 cells", "format": "in vitro ADME, human", "protocol": "Caco-2 cells were seeded at a density of 0.8×10^6 cells per well of a Transwell Clear filter 6 well plate, 0.4 μm pore size. The cells were incubated with 2 mL medium in both apical and basolateral chambers. This medium was replaced every 2 days for 10-14 days. Transepithelial resistance was measured using Millicell ERS apparatus (Millipore) at day 7, 10 and/or 14 in order to identify when the cells had become polarised. Readings of >1000 Ω were indicative of polarised cells. […]\nAll the supernatant and cell samples were transported frozen (at approximately −20° C.) to York Bioanalytical Solutions (York, England) for analysis. Briefly, 0.25 g of buffer (RPMI medium containing 10% FCS) was weighed into a polypropylene tube. A 50 μL volume of the appropriate working solution was added to the quality control (QC) samples. Methanol (50 μL) was added to each blank sample used for preparation of calibration standards, recovery samples and reagent blanks. A 2.5 mL volume of 0.1 M phosphate buffer was added to each sample, vortex mixed for approximately 1 min and then centrifuged at 3220×g for 10 min at 4° C.\nFor the liquid-liquid clean-up phase, an aliquot (100 μL) of the supernatant was transferred to a polypropylene tube. The pH was adjusted to pH 8-8.5 by the addition of 0.1 M NaOH, and vortex mixed. Ethyl acetate (5 mL) was added and after capping, the whole mixture was shaken for 10 min and then centrifuged at 3220×g for 10 min at 4° C.\nAmmonium acetate (20 mM; pH native)—formic acid, 1000:3, v/v (100 μL) was added to each well in a 2 mL polypropylene collection plate. An aliquot of the ethyl acetate mixture (100 μL) was transferred to the polypropylene collection plate and evaporated under nitrogen (40° C.) until the ethyl acetate was fully evaporated whilst the ammonium acetate remained. Methanol (100 μL) was added to each well, excluding the calibration standards.\nTo each well containing a calibration standard, 100 μL of the appropriate calibration working solution was added. Samples were then vortex mixed for at least 10 min and submitted for liquid chromatography with tandem mass spectrometric analysis. The method stated was applicable to the samples of media (and the calibration standards and quality control samples).\nFor the cells, the sample tubes were weighed, and 100 μL of acetonitrile was added. The samples were vortex mixed for 10 sec, then centrifuged at 10285×g at 4° C. for 5 min. The sample was transferred to a polypropylene tube. The original sample tube was washed with 0.1 M phosphate buffer (1 mL). This was transferred to the polypropylene tube. A second wash of 1 mL was made, then a final wash of 0.5 mL. The polypropylene tube was now at the same stage as the end of the liquid extraction, but with the cells present rather than media. This was then taken through the sample preparation as described above. The original sample tubes were allowed to dry (i.e. any remaining solvent evaporated off) and were then reweighed to determine the weight of cells in the sample, to allow the concentration per gram of cells to be determined."}, "[2]": {"system": "equine influenza strain Miami", "format": "cell-based", "details": "1 μg/ml, 4 h pretreatment, moi 10, fixed 4 h post infection"}, "[3]": {"system": "human Udorn strain of influenza", "assay": "Influenza infection of MDCK cells, immunofluorescence (Example 4), strain Udorn", "format": "cell-based", "details": "1 μg/ml, 4 h pretreatment, moi 10, fixed 4 h post infection"}, "[4]": {"system": "PR8 strain of influenza A virus", "assay": "Influenza infection of MDCK cells, immunofluorescence (Example 4), strain PR8", "format": "cell-based, human influenza", "details": "1 μg/ml, 4 h pretreatment, moi 10, fixed 4 h post infection"}, "[5]": {"system": "PRRSV", "assay": "PRRSV infection and cell spread in MA104 cells, drug added after infection (Example 5)", "format": "cell-based", "details": "moi 0.01, 1 μg/ml added 8 hours post infection", "protocol": "MA104 cells were infected with PRRSV at moi of 0.01 (should infect roughly 10% of the cells in the first round). 8 hours post infection tylvalosin, tylosin and tilmicosin were added at 1 μg/ml. Cells were harvested 28 hours post infection and infection was assessed by indirect immunofluorescence.\nAs stated above a moi of 0.01 should infect roughly 10% of the cells. However, after 28 hours the virus will have completed one round of infection and will have infected neighbouring cells. […] This detection increases 16-20 hours post infection and by 24 hours low levels of expression in neighbouring cells can be detected.\nThe addition of drugs 8 hours post infection should have no effect on the primary infection (i.e. no effect on entry of input virus). It could, however, effect viral replication directly or indirectly through other mechanisms and could also effect virus entry during the secondary round of infection where virus produced by the initially infected cells infects neighbouring cells."}, "[6]": {"system": "influenza strain Udorn", "assay": "Influenza virus time course in MDCK cells, immunofluorescence and plaque assay (Example 12)", "format": "cell-based"}, "[7]": {"system": "endosomal pH", "assay": "Acridine orange assay of endosomal pH (Example 13)", "format": "cell-based", "protocol": "Acridine orange is a dye that causes cells to fluoresce green with the exception of acidic compartments (such as endosomes) that appear red—due to the protonation of the dye and quenching of the green fluorescence. A substance that raises the endosomal pH will prevent the appearance of the red fluorescence. The effect of Aivlosin® and other macrolide antibiotics on a the staining of endosomes by acridine orange in number of cells lines was determined (see FIG. 19). An area of cells grown on a glass coverslip is first selected using a DAPI stain. […] This selection procedure helps reduce any bias in the results. The green and red filters on the epifluorescence microscope were then used to examine about 20 cells. The number of red spots (endosome vesicles) in was determined. The average number of Acridine orange stained endosomes was counted."}, "[8]": {"details": "cited from earlier work"}, "[9]": {"details": "Caco-2, 10 μg/mL, apical administration, 240 min"}, "[10]": {"details": "Caco-2, 100 μg/mL, apical administration, 30 min"}, "[11]": {"details": "Caco-2, 100 μg/mL, apical administration, 240 min"}, "[12]": {"details": "Caco-2, 100 μg/mL, apical administration, between 60 min and 120 min"}, "[13]": {"details": "Caco-2, 100 μg/mL, basolateral administration, 30 min"}, "[14]": {"details": "Caco-2, 100 μg/mL, basolateral administration, 240 min"}}, "data": [{"smiles": "CCC1OC(=O)CC(OC(C)=O)C(C)C(OC2OC(C)C(OC3CC(C)(O)C(OC(=O)CC(C)C)C(C)O3)C(N(C)C)C2O)C(CC=O)CC(C)C(=O)C=CC(C)=CC1COC1OC(C)C(O)C(OC)C1OC", "note": "(centres unmarked) [tylvalosin, 3-O acetyl-4″-O-isovaleryltylosin]", "values": [{"measurement": "average intracellular concentration", "setting": "[1]; Caco-2, 10 μg/mL, apical administration, 120 min", "result": 42.2, "unit": "μg/mg cells"}, {"measurement": "average intracellular concentration", "setting": "[1]; [9]", "result": 34.3, "unit": "μg/mg cells"}, {"measurement": "basolateral chamber content as average % of the apical chamber value", "setting": "[1]; [9]", "result": 10.47, "unit": "%"}, {"measurement": "intracellular:extracellular ratio (fold concentration)", "setting": "[1]; [9]", "result": 3.49, "unit": "fold"}, {"measurement": "average intracellular concentration", "setting": "[1]; [10]", "result": 428, "unit": "μg/mg cells"}, {"measurement": "intracellular:extracellular ratio", "setting": "[1]; [10]", "result": 4.64}, {"measurement": "intracellular concentration", "setting": "[1]; [11]", "result": 375, "unit": "μg/mg cells"}, {"measurement": "intracellular:extracellular ratio", "setting": "[1]; [11]", "result": 5.85}, {"measurement": "tylvalosin in opposite (basolateral) chamber compared to the administration chamber", "setting": "[1]; [11]", "result": 19, "unit": "%"}, {"measurement": "intracellular:extracellular ratio (peak, average value)", "setting": "[1]; [12]", "result": "10.23-15.58"}, {"measurement": "maximum intracellular concentration", "setting": "[1]; [12]", "result": "559.5-620 μg/mg cells"}, {"measurement": "average intracellular concentration", "setting": "[1]; [13]", "result": 493, "unit": "μg/mg cells"}, {"measurement": "intracellular:extracellular ratio", "setting": "[1]; [13]", "result": 7}, {"measurement": "intracellular concentration", "setting": "[1]; [14]", "result": 155.5, "unit": "μg/mg cells"}, {"measurement": "intracellular:extracellular ratio", "setting": "[1]; [14]", "result": 3.57}, {"measurement": "tylvalosin in opposite (apical) chamber compared to the administration chamber", "setting": "[1]; [14]", "result": 22.05, "unit": "%"}, {"measurement": "total amount of tylvalosin transported across the cells", "setting": "[1]; Caco-2, after 4 h (discussion)", "result": "about 20%"}, {"measurement": "inhibition of infection of MDCK cells", "setting": "[2]", "result": 92, "unit": "%"}, {"measurement": "inhibition of infection of MDCK cells", "setting": "[3]", "result": 76, "unit": "%"}, {"measurement": "inhibition of infection of MDCK cells", "setting": "[4]", "result": "completely inhibited"}, {"measurement": "spread of the virus to neighbouring cells", "setting": "[5]", "result": "prevented spread"}, {"measurement": "virus positive cells", "setting": "[5]; harvested 28 hours post infection", "result": 1, "unit": "%"}, {"measurement": "influenza strain Udorn infection over the 24 hour period (immunofluorescence and plaque assay)", "setting": "[6]", "result": "inhibited"}, {"measurement": "effect on raising the pH in the endosomes", "setting": "[7]; acridine orange stained endosomes, any cell line", "result": "raises the pH in endosomes"}, {"measurement": "effect on endosomal pH", "setting": "[7]; epithelial cells", "result": "greater effects than tilmicosin"}, {"measurement": "pKa", "setting": "[8]", "result": 7.6}]}]}
